According to patent US20050019746A1, “Apoptosis-related kinase/GPCRs” (EiRx Therapeutics Limited, priority 2003, published 2005):

Each substance was assayed on target gene mRNA in DU145 cells (assay: Knockdown by RNAi, QPCR, DU145 cells). Details: DU145, 24 hrs post transfection, relative to missense control.
Format: cell-based, human
Procedure: These siRNA oligos are initially tested for efficacy in a cell line in which the gene is expressed for example in the Hela, U251, TF1 or DU145 cell lines. Cells are plated at a density of between 7.5-10×10^4 in each well of a 6 well plate and incubated at 37° C. overnight in DMEM culture medium (1× Dulbeccos modified Eagles medium (Sigma D2554), 0.004% folic acid, 4 mM L-glutamine, 0.37% sodium bicarbonate, 0.1 mM sodium pyruvate) containing 10% fetal calf serum (FCS). 2 μg of duplex siRNA is transfected into cells using DMRIE-C reagent (Invitrogen 10459-014) according to methods described in U.S. Patent Application No. 60/498,488. In brief, to prepare 1 ml of a transfection solution 2 μg of siRNA duplex in added to 1 ml of Optimem (Gibco), to which 8 μl of DMRIE C reagent is added. Transfection mix is added directly to the cells and incubated for 4 hrs at 37° C. Post this 4 hr incubation, transfection solution is removed and cells are refed with fresh culture medium and incubated for a further 24 hrs. An additional medium change is required at this point to minimise toxicity of the transfection procedure. Cells are harvested at 24 or 48 hrs post transfection for analysis of mRNA expression. […]
After DMRIE transfections with siRNA Oligos against the apoptosis associated genes identified herein, or controls, cells are harvested at 24 or 48 hours post transfection as stated previously. […] RNA is quantified by spectrophotometric analysis and 1 μg is reverse transcribed into cDNA using SuperScriptII RNAseH-Reverse Transcriptase (Invitrogen 18064-014). […] QPCR primers are designed to amplify a PCR product of approximately 100 to 300 nucleotides in length from the CDS, following the guidelines outlined in the Quantitect SYBR Green PCR handbook from Qiagen.
Two template standards are used for quantitative PCR assessment of mRNA levels: • 1. A control RPS13 i.e. Ribosomal Protein Sub unit 13 (NM_001017) amplified PCR product diluted to [1000,100,10,1 and 0.1 fg] respectively, used to quantify the level of transcript; • 2. […]

First: siRNA FLT4: sense GUACGGCAACCUCUCCAACtt, antisense GUUGGAGAGGUUGCCGUACtt (sense GUACGGCAACCUCUCCAACTT; antisense GUUGGAGAGGUUGCCGUACTT; chemistry not given here)
Second: siRNA GRAF: siRNA duplex, sense GCGGAAGUUUGCAGAUUCCtt, antisense GGAAUCUGCAAACUUCCGCtt; same in Tables 9 and 11 (sense GCGGAAGUUUGCAGAUUCCTT; antisense GGAAUCUGCAAACUUCCGCTT; chemistry not given here)
The “% Knockdown by RNAi, DU145” value of the first is higher: 85% for the first, 84.4% for the second.

“siRNA MAK: sense GAAGCCAAGCAUGGGUGUUtt, antisense AACACCCAUGCUUGGCUUCtt (sense GAAGCCAAGCAUGGGUGUUTT; antisense AACACCCAUGCUUGGCUUCTT; chemistry not given here)” was tested, and the “% Knockdown by RNAi, DU145” value was 19%.

What follows are substances tested on target gene mRNA in PC3 cells (assay: Validation of siRNA efficacy by QPCR in PC3 cells). Details: PC3, siRNA 50 nM, RNAiFect, 24 hours post transfection, relative to non-silencing control, normalised to GAPDH.
Format: cell-based, human
Procedure: To evaluate the ability of each siRNA oligonucleotides to knock down its intended target, each siRNA was validated in a cell line known to express the target, in this example the genes were tested PC3 cells, which were shown by expression profiling to express all target genes. The efficacy of knockdown was measured using QPCR. Cells are plated at a density of 2×10^4 cells in each well of a 24 well plate and incubated at 37° C. overnight. The siRNA is transfected into cells using RNAiFect reagent (Qiagen) with siRNA at a concentration of 50 nM according to manufacturer's instructions. Additional wells of cells are transfected with 50 nM of a non-silencing control (Qiagen). […] Transfected cells are harvested at 24 hours post transfection, and RNA extracted using RNeasy Miniprep columns with an on-column DNase digestion step. The RNA is eluted in 30 μl of RNase-free H2O. cDNA is synthesised from 12 μl of this RNA using an anchored oligo(dT) primer (Sigma) and Transcriptor reverse transcriptase (Roche) at 55° C. in a total volume of 20 μl following the manufacturer's instructions. The resulting cDNA is diluted to a total of 200 μl with H2O and 10 μl used in each QPCR reaction. The levels of transcript are compared by QPCR, relative to the non-silencing control. QPCR is performed using primers, conditions and methodology identical to those used for expression profiling, see Table 8. All reactions were performed in duplicate and the average Ct values calculated. For each sample, the Ct of each target gene in normalised to GAPDH. Relative expression between cells transfected with target or non-silencing siRNA, normalised to GAPDH expression, is determined by the comparative Ct method.

Going from “siRNA EKI: siRNA duplex, sense GCACUGGAUCCAAAGCAUGtt, antisense CAUGCUUUGGAUCCAGUGCtt; same in Tables 9 and 11 (sense GCACUGGAUCCAAAGCAUGTT; antisense CAUGCUUUGGAUCCAGUGCTT; chemistry not given here)” to “siRNA GRAF: siRNA duplex, sense GCGGAAGUUUGCAGAUUCCtt, antisense GGAAUCUGCAAACUUCCGCtt; same in Tables 9 and 11 (sense GCGGAAGUUUGCAGAUUCCTT; antisense GGAAUCUGCAAACUUCCGCTT; chemistry not given here)”, the “Decrease in expression of target gene” value falls from 76.0% to 64.5%.

First: siRNA NTKL: siRNA duplex, sense UGUGGAGCUGAUGAAGCACtt, antisense GUGCUUCAUCAGCUCCACAtt; same in Tables 9 and 11 (sense UGUGGAGCUGAUGAAGCACTT; antisense GUGCUUCAUCAGCUCCACATT; chemistry not given here)
Second: siRNA ROCK: siRNA duplex, sense UACAUGCCUGGUGGAGAUCtt, antisense GAUCUCCACCAGGCAUGUAtt; same in Tables 9 and 11 (sense UACAUGCCUGGUGGAGAUCTT; antisense GAUCUCCACCAGGCAUGUATT; chemistry not given here)
The “Decrease in expression of target gene” value of the first is higher: 82.9% for the first, 65.0% for the second.

For “siRNA Survivin: positive control siRNA, sense GAACUGGCCCUUCUUGGAGtt, antisense CUCCAAGAAGGGCCAGUUCtt (sense GAACUGGCCCUUCUUGGAGTT; antisense CUCCAAGAAGGGCCAGUUCTT; chemistry not given here) [reference compound]”, the “Decrease in expression of target gene” value was 82.2%.
